# Patent publication US20210137935A1, “CORTICOTROPIN RELEASING FACTOR RECEPTOR ANTAGONISTS” (Spruce Biosciences, Inc., priority 2017, published 2021)
# Legend:
# Type in all cases: in vivo, human
# Androstenedione = assay: Phase 2 study in adults with classic CAH: Androstenedione; settings: patients with classic CAH
# Excerpt: (§1) Cohort A of the Phase 2 Study includes a 6-week, multiple-dose, dose escalation study of Compound 1 for the treatment of adults with classic CAH. After screening, eligible patients will be enrolled into a 6-week treatment period followed by a 4-week washout/safety follow-up period.
# (§2) This cohort will be conducted in approximately 9 patients, who will receive Compound 1 daily for up to 6 weeks. Compound 1 will be administered as an oral daily dose. Patients will undergo titration of Compound 1 through three escalating dosage strengths at 2-week intervals. Patients will have overnight PK/PD assessments performed at baseline, which include an pre-dose overnight assessment and a post-dose overnight assessment for PK/PD following administration of the first dose. At the end of each 2-week dosing period, patients will return for single overnight visits for steady-state PK/PD assessments. A follow-up outpatient visit will occur 30 days after their last dose. Upon completion of the initial cohort (Cohort A), the study will proceed to a multiple ascending dose (MAD) design with up to 3 sequential cohorts (Cohorts B, C, and D) to further evaluate the safety, PK, and PD of various SPR001 dosing regimens and to identify an optimal dose regimen. Each cohort will undergo a 2-week run-in period, a 2-week treatment period, and a 30-day washout and safety follow-up period. During the run-in period, which will occur during screening, subjects will document in a paper diary each dose of glucocorticoid medication taken, the time of each meal, and the time they went to bed and woke up each day, to ensure compliance with background glucocorticoid regimens and the stability of their daily routine.
# (§3) • 3. To explore the dose(s) of Compound 1 that cause pharmacodynamics changes in plasma concentrations of ACTH, androstenedione, and testosterone, as measured by the absolute and percent change from baseline by dose. • 4. To determine pharmacokinetics of Compound 1 in subjects with CAH. • 5. To explore potential relationships between pharmacodynamics and pharmacokinetics. […]
# [1] = Phase 1 safety and tolerability (Study 1 and Study 2); settings: healthy subjects
# Excerpt: Study 1 was the first-in-human study that investigated the safety, tolerability, and PK of single-escalating doses of Compound 1, given orally, to healthy adult subjects. […] The data from this study were used for the selection of doses for Study 2.
# (§4) The 2-part multiple-dose study, Study 2, determined the safety and tolerability of repeated daily doses of Compound 1 and investigated the effects on biomarkers of relevance for the treatment of alcohol dependence.
# The safety of Compound 1 was evaluated in 2 Phase 1 studies in healthy adult volunteers (Study 1 and Study 2). In both studies, adverse events (AEs), clinical laboratory tests, vital signs (supine blood pressure and pulse rate), and electrocardiograms (ECGs) were evaluated. Overall, in Study 1, Compound 1 was well-tolerated.
# ACTH = assay: Phase 2 study in adults with classic CAH: ACTH; settings: patients with classic CAH
# Excerpt: as §1, §2, §3
# [2] = Study 2 Part A: multiple-dose (14 days) pharmacokinetics in healthy adult volunteers; settings: for Cmax: fed; for Effective t1/2: half-life calculated by accumulation ratio; for Tmax: median; for WT-norm Claa/F: weight normalized
# Experimental: as §4
# PK were also evaluated in the multiple-dose, dose-escalation study, Study 2. In Part A of the study, subjects were divided into 3 cohorts and received 50, 150, or 200 mg Compound 1 or placebo for 14 consecutive days (at least 6 subjects received Compound 1 and 2 subjects received placebo in each cohort). […] All dosing occurred in the fed state. An assessment of diurnal cortisol levels, plus when under conditions of glucose clamp, were also carried out both prior to and during the dosing period.
# Consistent with the single-dose study (Study 1), concentrations appeared to decline in a bi-exponential manner, characterized by a rapid decrease within the first 24 hours. […] The Tmax appeared to be consistent across doses. Overall half-lives, weight normalized CL/F and V/F were consistent for 150 and 200 mg. However, the values for these latter 2 parameters were almost doubled at the 50-mg dose level. Variability (CV %) for apparent clearance and volume of distribution were large and not reduced with weight-normalization.
# Table 8 presents the results of the dose proportionality assessment for the AUC0-24 and Cmax over the tested dose range.
# [3] = 50 mg daily, Day 14, geometric mean
# [4] = 150 mg daily, Day 14, geometric mean
# [5] = 200 mg daily, Day 14, geometric mean
smiles,measurement,setting,value
"CCC(CC)c1cc(C)nc2c(-c3sc(N4CCOCC4)nc3Cl)c(C)nn12 [Compound 1, 3-(4-Chloro-2-(morpholin-4-yl)thiazol-5-yl)-7-(1-ethylpropyl)-2,5-dimethylpyrazolo(1,5-a)pyrimidine]",subjects with more than 25% reduction in Androstenedione,Androstenedione,60%
same,subjects within normal reference range (Androstenedione) after treatment,Androstenedione,50%
same,subjects with reduction in Androstenedione,Androstenedione; at various doses,100%
same,tolerability,"[1]; Study 1, single oral doses up to 800 mg",well-tolerated
same,tolerability,"[1]; Study 2, multiple doses up to 200 mg",generally well tolerated
same,subjects in the normal range (ACTH) after treatment,ACTH,40%
same,subjects with more than 25% reduction in ACTH,ACTH,70%
same,subjects with reduction in ACTH,ACTH,80%
same,Cmax,[2]; [3],50.3 ng/mL
same,AUC0-24 h,[2]; [3],273 ng·h/mL
same,AUC0-∞,[2]; [3],980 ng·h/mL
same,CLaa/F,[2]; [3],183 L/h
same,Cavg,[2]; [3],11.4 ng/mL
same,Effective t1/2,[2]; [3],37.7 h
same,Tmax,"[2]; 50 mg daily, Day 14",5.00 h
same,WT-norm Claa/F,[2]; [3],48 mL/min/kg
same,"RA (accumulation ratio, Day 14 AUC0-24/Day 1 AUC0-24)","[2]; 50 mg daily, geometric mean",2.80
same,Cmax,"[2]; 50 mg, Day 1, geometric mean",22.7 ng/mL
same,AUC0-24 h,"[2]; 50 mg, Day 1, geometric mean",97.6 ng·h/mL
same,Tmax,"[2]; 50 mg, Day 1",4.52 h
same,Cmax,[2]; [4],222 ng/mL
same,AUC0-24 h,[2]; [4],1480 ng·h/mL
same,AUC0-∞,[2]; [4],4680 ng·h/mL
same,CLaa/F,[2]; [4],101 L/h
same,Cavg,[2]; [4],61.7 ng/mL
same,Effective t1/2,[2]; [4],32.7 h
same,Tmax,"[2]; 150 mg daily, Day 14",5.00 h
same,WT-norm Claa/F,[2]; [4],23.7 mL/min/kg
same,"RA (accumulation ratio, Day 14 AUC0-24/Day 1 AUC0-24)","[2]; 150 mg daily, geometric mean",2.51
same,Cmax,"[2]; 150 mg, Day 1, geometric mean",127 ng/mL
same,AUC0-24 h,"[2]; 150 mg, Day 1, geometric mean",590 ng·h/mL
same,Tmax,"[2]; 150 mg, Day 1",5.00 h
same,Cmax,[2]; [5],314 ng/mL
same,AUC0-24 h,[2]; [5],2040 ng·h/mL
same,AUC0-∞,[2]; [5],5660 ng·h/mL
same,CLaa/F,[2]; [5],98 L/h
same,Cavg,[2]; [5],85.0 ng/mL
same,Effective t1/2,[2]; [5],52.0 h
same,Tmax,"[2]; 200 mg daily, Day 14",5.00 h
same,WT-norm Claa/F,[2]; [5],25 mL/min/kg
same,"RA (accumulation ratio, Day 14 AUC0-24/Day 1 AUC0-24)","[2]; 200 mg daily, geometric mean",3.65
same,Cmax,"[2]; 200 mg, Day 1, geometric mean",143 ng/mL
same,AUC0-24 h,"[2]; 200 mg, Day 1, geometric mean",559 ng·h/mL
same,Tmax,"[2]; 200 mg, Day 1",5.00 h
same,Vd/F at 14 days,"[2]; human, plasma, oral, 50 mg daily, Day 14, geometric mean, read-out: Vz/F",33500 L
